Assay results from US9353090B2, “Heterocyclic carboxylic acids as activators of soluble guanylate cyclase” (Boehringer Ingelheim International GmbH, priority 2014, dated 2016).
Converted amounts (≈) assume the structure as drawn.

Experiments:
[1] = molecular target: human soluble guanylate cyclase alpha 1 and beta 1 subunits (sGC) (Homo sapiens (Human), UniProt Q02108+Q02153); experiment: sGC cellular activator assay (cGMP, HTRF), in the presence and absence of 50% human serum; type: cell-based; conditions: CHO cells stably expressing human sGC alpha 1/beta 1, preincubated with 40 microM ODQ; cGMP by HTRF; Table 2 does not state whether with or without 50% human serum
Description: The sGC cellular activator assay is performed in the presence and absence of 50% human serum (HS) using Chinese hamster ovary cells that have been stably transfected to express the human soluble guanylate cyclase alpha 1 and beta 1 subunits (sGC). Cells are preincubated with 40 microM 1H-[1,2,4]oxadiazolo[4,3-a]quinoxalin-1-one (ODQ), an sGC inhibitor, for one h in buffer containing 0.1% bovine serum albumin and 3-isobutyl-1-methylxanthine (IBMX). Concentration response curves are prepared for test compounds in DMSO. An intermediate dilution of the compounds is performed in either buffer containing IBMX or type AB HS containing IBMX. Diluted compounds are added to cells and they are incubated at room temperature for thirty min. cGMP is measured using a CisBio homogeneous time resolved fluorescence kit and the EC50 is calculated for each compound.
Representative compounds of the present invention were tested for activity the above assay. Preferred compounds have an EC50 of <1,000 nM in the above assay and more preferred compounds have an EC50<200 nM.

[2] = Human liver microsome (HLM) metabolic stability assay; type: in vitro ADME; conditions: human liver microsomes
Description: The 5 time point, high-throughput human liver microsome (HLM) metabolic stability assay is designed to determine in vitro compound metabolism. Compounds are incubated with HLMs at a concentration of 1 uM, at 37° C., for a total of 60 min. The percent of compound remaining at 5, 15, 30, and 60 min is used to calculate the t1/2 (min), CLint (mL/min/kg), CLh (mL/min/kg), and % Qh. The assay is based on a 96-well format and can accommodate up to 92 compounds per plate (n=1).
Using the 96-well multi-channel head, the Biomek FX, equipped with a Peltier heating block/shaker, is programmed to accomplish the following steps: • 1. Pipette 175 uL of 1.15 mg/mL microsomes into each of the 96 conical inserts (Analytical Sales and Products, catalog number 96PL05) that fit into the plate of the Peltier heating block/shaker (the incubation plate) • 2. Add 5 uL of compounds from the assay plate to the microsomes and shake the mixture at 600 rpm at 42.1° C. for 10 min (a setting of 42.1° C. on the Peltier is required for the samples to incubate at 37° C.) • 3. After 10 min, prompt the user to add the NADPH plate to the deck and add 20 uL from the NADPH plate to the incubation plate to start the reaction • 4. Add 215 uL of 100%, cold acetonitrile containing an internal standard(s) to a 0 minute, 5 minute, 15 minute, 30 minute, and 60 minute “quench” plate • 5. At 0 min, 5 min, 15 min, 30 min, and 60 min into the incubation, aspirate 12 uL from the incubation mixture and add it to the quench solution to stop the reaction • 6. Add 185 uL HPLC grade water to each well of the 0, 5, 15, 30 and 60 minute quench plates to dilute compounds to the appropriate concentration for the mass spectrometer
After all time points are collected, the quench plates are sealed with 96-well pierceable plate mats or heat sealing foil and centrifuged at 3000 rpm for 15 min to pellet the microsomes.
The plates are analyzed using LC/MS/MS with electron spray ionization (ESI) and the previously determined MRM transitions. The LC method includes the following parameters:
Using an Excel template in Activitybase, the peak areas corresponding to 5, 15, 30 and 60 min are compared to the peak area at 0 min to calculate the percent of remaining compound using the following equation:
Percent compound remaining=(AUC at Time t min/AUC at Time 0 min)×100 where t=0, 5, 15, 30 or 60 min.
Time (min) is plotted against the natural logarithm (Ln) of the percent compound remaining to determine the slope. The slope is used to calculate t1/2 (min) using the equation, t1/2=0.693/slope.
Clh, Hepatic clearance • Hepatic flow*f(u)*Clint/(hepatic flow+f(u)*Clint)
Qh, % Hepatic blood flow • (Clh/Hepatic flow)*100
Preferred compounds have % Qh values of less than 24.

physchem = conditions: kinetic from dmso stock
Description: Solubility is measured by the following method.
100 uL, 10 mM DMSO stock solution of each compound is prepared in a 96 well plate format. The experiment is done in single determination at 3 pH values (2.2, 4.5 and 6.8). For each pH and one reference, 40 uL of each compound is needed.
McIlvaine pH 2.2: To 2.076 g citric acid monohydrate and 0.043 g Na2HPO4×2H2O add 100 ml deionized water
McIlvaine pH 4.5: To 1.166 g citric acid monohydrate and 1.585 g Na2HPO4×2H2O add 100 ml deionized water
McIlvaine pH 6.8: To 0.476 g citric acid monohydrate and 2.753 g Na2HPO4×2H2O add 100 ml deionized water
With a suitable liquid handling device (Multipette® or a liquid handler) 390 uL of each buffer solution and 10 uL of compound is added to each well of a 96 deep well plate. The plates are covered firmly and shaken for 24 h on an over head shaker (at 54 RPM) at room temperature. The DMSO content in the final buffer is 2.5% v/v.
After 24 h the plates are centrifuged to remove droplets on the lid before opening (for ˜5 min at 2500 RPM).
The filtration is done under vacuum with Millipore 96 well filter plate. Filtrate is collected in a deep well plate and transferred to a suitable plate for UPLC analysis.
The reference plate is prepared by adding 10 uL of compound to 390 uL of 50:50 acetonitrile/water in a 96 deep well plate and transferred to a suitable plate for UPLC analysis. Wells are checked visually for precipitation, any presence noted under comments in reported results.
The samples are measured with UPLC-UV using the chromatographic method described below.
Waters Empower®2 software is used for generating Sample Sets (according to the plate layout), Sample Set Methods and Instrument Methods.
One Sample Set comprises the methods for three 96 well plates (one reference plate and two sample plates, and includes one Sample Set Method and one Instrument Method).
Data Processing and Analysis
The UV chromatograms collected at 254 nm are integrated and processed.
It is assumed that the compound is completely dissolved in the reference solution (50:50 acetonitrile/water)

[3] = pH 2.2, aqueous buffer, Solubility (pH 2.2)
[4] = pH 4.5, aqueous buffer, Solubility (pH 4.5)
[5] = pH 6.8, aqueous buffer, Solubility (pH 6.8)

Chain of human soluble guanylate cyclase alpha 1 and beta 1 subunits (sGC) (Q02108 whole entry partner): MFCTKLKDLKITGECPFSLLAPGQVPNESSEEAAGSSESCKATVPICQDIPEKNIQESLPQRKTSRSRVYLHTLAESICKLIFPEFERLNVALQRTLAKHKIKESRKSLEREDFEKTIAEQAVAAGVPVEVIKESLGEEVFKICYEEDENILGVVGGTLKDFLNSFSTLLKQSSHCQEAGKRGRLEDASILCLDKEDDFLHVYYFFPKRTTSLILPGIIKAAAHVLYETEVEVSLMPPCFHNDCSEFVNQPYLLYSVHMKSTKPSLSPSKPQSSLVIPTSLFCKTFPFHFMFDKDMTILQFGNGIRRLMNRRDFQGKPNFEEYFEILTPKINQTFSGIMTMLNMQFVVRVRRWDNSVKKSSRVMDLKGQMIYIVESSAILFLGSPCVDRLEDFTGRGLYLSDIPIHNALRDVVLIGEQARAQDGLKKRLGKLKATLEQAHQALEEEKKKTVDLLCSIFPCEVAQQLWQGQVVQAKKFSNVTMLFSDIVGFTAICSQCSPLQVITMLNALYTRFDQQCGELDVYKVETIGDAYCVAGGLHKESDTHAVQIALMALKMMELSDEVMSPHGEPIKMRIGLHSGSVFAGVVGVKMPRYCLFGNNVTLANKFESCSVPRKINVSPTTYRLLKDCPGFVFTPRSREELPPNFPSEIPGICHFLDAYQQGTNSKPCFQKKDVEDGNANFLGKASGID
Chain of human soluble guanylate cyclase alpha 1 and beta 1 subunits (sGC) (Q02153 whole entry): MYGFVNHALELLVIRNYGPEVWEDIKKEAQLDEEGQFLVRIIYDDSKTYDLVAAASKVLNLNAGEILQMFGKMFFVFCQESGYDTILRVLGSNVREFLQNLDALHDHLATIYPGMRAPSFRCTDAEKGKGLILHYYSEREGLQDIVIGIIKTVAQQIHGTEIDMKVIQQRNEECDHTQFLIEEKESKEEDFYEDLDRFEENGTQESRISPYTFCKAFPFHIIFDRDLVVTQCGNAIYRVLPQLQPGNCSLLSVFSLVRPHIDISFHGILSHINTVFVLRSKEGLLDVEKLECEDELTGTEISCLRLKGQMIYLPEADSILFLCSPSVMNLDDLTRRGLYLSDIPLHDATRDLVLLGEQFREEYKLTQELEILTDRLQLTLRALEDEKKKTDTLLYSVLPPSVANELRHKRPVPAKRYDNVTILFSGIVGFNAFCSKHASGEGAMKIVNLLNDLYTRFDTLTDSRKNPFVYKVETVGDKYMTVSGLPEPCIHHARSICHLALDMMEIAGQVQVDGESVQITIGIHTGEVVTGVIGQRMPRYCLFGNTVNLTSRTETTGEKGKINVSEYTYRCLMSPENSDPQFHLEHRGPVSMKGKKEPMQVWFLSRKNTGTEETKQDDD

Row | SMILES | EC50 [1] | Metabolic stability (Qh %), % hepatic blood flow [2] | solubility at 24 h (physchem; [3]) | solubility at 24 h (physchem; [4]) | solubility at 24 h (physchem; [5])
1 | COc1cc(COc2c(C)cccc2-c2cccc(N3C[C@@H]4C[C@]4(C(=O)O)C3)n2)cc2c1CN(C1CCOCC1)CC2 [Compound 27] | 16 nM | <24% | 110 µg/mL (≈ 193 µM) | 95 µg/mL (≈ 167 µM) | 68 µg/mL (≈ 119 µM)
2 | COc1cc(COc2c(C)cccc2-c2cccc(N3C[C@@H]4C[C@]4(C(=O)O)C3)n2)cc2c1CN(C1COC1)CC2 [Compound 28] | 19 nM | <24% | 110 µg/mL (≈ 203 µM) | 90 µg/mL (≈ 166 µM) | 73 µg/mL (≈ 135 µM)
3 | Cc1cccc(-c2cccc(N3C[C@@H]4C[C@]4(C(=O)O)C3)n2)c1OCc1cc(C#N)c2c(c1)CCN(C1COC1)C2 [Compound 29] | 18 nM | <24% | 110 µg/mL (≈ 205 µM) | 76 µg/mL (≈ 142 µM) | 79 µg/mL (≈ 147 µM)
4 | Cc1cccc(-c2cccc(N3C[C@@H]4C[C@]4(C(=O)O)C3)n2)c1OCc1cc(C#N)c2c(c1)CCN(C1CCOCC1)C2 [Compound 30] | 8 nM | <24% | 110 µg/mL (≈ 195 µM) | 84 µg/mL (≈ 149 µM) | 62 µg/mL (≈ 110 µM)
5 | Cc1cccc(-c2cccc(N3C[C@@H]4C[C@]4(C(=O)O)C3)n2)c1OCc1ccc2c(c1)CCN(C1CCOCC1)CC2 [Compound 31] | 7 nM | <24% | 110 µg/mL (≈ 199 µM) | 95 µg/mL (≈ 172 µM) | 67 µg/mL (≈ 121 µM)
6 | Cc1cccc(-c2cccc(N3C[C@@H]4C[C@]4(C(=O)O)C3)n2)c1OCc1ccc2c(c1)CCN(C1COC1)CC2 [Compound 32] | 4 nM | <24% | 120 µg/mL (≈ 228 µM) | 88 µg/mL (≈ 167 µM) | 50 µg/mL (≈ 95.1 µM)
7 | Cc1cccc(-c2cccc(N3C[C@@H]4C[C@]4(C(=O)O)C3)n2)c1OCc1ccc2c(c1C)CCN(C1CCOCC1)CC2 [Compound 33] | 4 nM | <24% | 110 µg/mL (≈ 194 µM) | 93 µg/mL (≈ 164 µM) | 68 µg/mL (≈ 120 µM)
8 | Cc1cccc(-c2cccc(N3C[C@@H]4C[C@]4(C(=O)O)C3)n2)c1OCc1ccc2c(c1C)CCN(C1COC1)CC2 [Compound 34] | 2 nM | <24% | 110 µg/mL (≈ 204 µM) | 97 µg/mL (≈ 180 µM) | 67 µg/mL (≈ 124 µM)
9 | Cc1ccc(OCc2ccc3c(c2C)CCN(C2CCOCC2)C3)c(-c2cccc(N3C[C@@H]4C[C@]4(C(=O)O)C3)n2)c1 [Compound 35] | 45 nM | <24% | 100 µg/mL (≈ 181 µM) | 93 µg/mL (≈ 168 µM) | 6.4 µg/mL (≈ 11.6 µM)
10 | Cc1ccc(OCc2ccc3c(c2C)CCN(C2COC2)C3)c(-c2cccc(N3C[C@@H]4C[C@]4(C(=O)O)C3)n2)c1 [Compound 36] | 120 nM | <24% | 100 µg/mL (≈ 190 µM) | 84 µg/mL (≈ 160 µM) | 48 µg/mL (≈ 91.3 µM)
11 | Cc1ccc(OCc2cc(C)c3c(c2)CCN(C2CCOCC2)C3)c(-c2cccc(N3C[C@@H]4C[C@]4(C(=O)O)C3)n2)c1 [Compound 37] | 299 nM | <24% | 100 µg/mL (≈ 181 µM) | 93 µg/mL (≈ 168 µM) | 50 µg/mL (≈ 90.3 µM)
12 | Cc1ccc(OCc2cc(C)c3c(c2)CCN(C2COC2)C3)c(-c2cccc(N3C[C@@H]4C[C@]4(C(=O)O)C3)n2)c1 [Compound 38] | 354 nM | <24% | 100 µg/mL (≈ 190 µM) | 85 µg/mL (≈ 162 µM) | 59 µg/mL (≈ 112 µM)
13 | Cc1ccc(OCc2cc(C)c3c(c2C)CCN(C2CCOCC2)C3)c(-c2cccc(N3C[C@@H]4C[C@]4(C(=O)O)C3)n2)c1 [Compound 39] | 50 nM | <24% | 100 µg/mL (≈ 176 µM) | 91 µg/mL (≈ 160 µM) | 45 µg/mL (≈ 79.3 µM)
14 | Cc1ccc(OCc2cc(C)c3c(c2C)CCN(C2COC2)C3)c(-c2cccc(N3C[C@@H]4C[C@]4(C(=O)O)C3)n2)c1 [Compound 40] | 38 nM | <24% | 98 µg/mL (≈ 182 µM) | 79 µg/mL (≈ 146 µM) | 52 µg/mL (≈ 96.4 µM)
15 | Cc1ccc(OCc2ccc3c(c2C)CCN(C2CCOCC2)CC3)c(-c2cccc(N3C[C@@H]4C[C@]4(C(=O)O)C3)n2)c1 [Compound 41] | 16 nM | <24% | 100 µg/mL (≈ 176 µM) | 84 µg/mL (≈ 148 µM) | 45 µg/mL (≈ 79.3 µM)
16 | Cc1ccc(OCc2ccc3c(c2C)CCN(C2COC2)CC3)c(-c2cccc(N3C[C@@H]4C[C@]4(C(=O)O)C3)n2)c1 [Compound 42] | 50 nM | 76% | 96 µg/mL (≈ 178 µM) | 87 µg/mL (≈ 161 µM) | 58 µg/mL (≈ 107 µM)
17 | COC[C@H]1N(c2cccc(-c3cccc(C)c3OCc3ccc4c(c3)CCN(C3COC3)C4)n2)C[C@@H]2C[C@@]21C(=O)O [Compound 43] | 63 nM | <24% | 140 µg/mL (≈ 252 µM) | 120 µg/mL (≈ 216 µM) | 97 µg/mL (≈ 175 µM)
18 | COC[C@H]1N(c2cccc(-c3cccc(C)c3OCc3ccc4c(c3)CCN(C3CCOCC3)C4)n2)C[C@@H]2C[C@@]21C(=O)O [Compound 44] | 58 nM | <24% | 130 µg/mL (≈ 223 µM) | 110 µg/mL (≈ 188 µM) | 86 µg/mL (≈ 147 µM)
19 | COC[C@H]1N(c2cccc(-c3cccc(C)c3OCc3ccc4c(c3C)CCN(C3CCOCC3)C4)n2)C[C@@H]2C[C@@]21C(=O)O [Compound 46] | 18 nM | <24% | 110 µg/mL (≈ 184 µM) | 96 µg/mL (≈ 161 µM) | 77 µg/mL (≈ 129 µM)
20 | COC[C@H]1N(c2cccc(-c3cccc(C)c3OCc3ccc4c(c3C)CCN(C3COC3)C4)n2)C[C@@H]2C[C@@]21C(=O)O [Compound 47] | 17 nM | <24% | 110 µg/mL (≈ 193 µM) | 95 µg/mL (≈ 167 µM) | 84 µg/mL (≈ 147 µM)
21 | COC[C@H]1N(c2cccc(-c3cccc(C)c3OCc3cc(C)c4c(c3)CCN(C3CCOCC3)C4)n2)C[C@@H]2C[C@@]21C(=O)O [Compound 48] | 18 nM | <24% | 110 µg/mL (≈ 184 µM) | 69 µg/mL (≈ 115 µM) | 83 µg/mL (≈ 139 µM)
22 | COC[C@H]1N(c2cccc(-c3cccc(C)c3OCc3cc(C)c4c(c3)CCN(C3COC3)C4)n2)C[C@@H]2C[C@@]21C(=O)O [Compound 49] | 12 nM | <24% | 120 µg/mL (≈ 211 µM) | 95 µg/mL (≈ 167 µM) | 82 µg/mL (≈ 144 µM)
23 | COC[C@H]1N(c2cccc(-c3cccc(C)c3OCc3cc(C)c4c(c3)CCN(C3CCOC3)C4)n2)C[C@@H]2C[C@@]21C(=O)O (stereo partly drawn) [Compound 50] | 8 nM | 26% | 120 µg/mL (≈ 206 µM) | 96 µg/mL (≈ 164 µM) | 77 µg/mL (≈ 132 µM)
24 | CCc1cc(COc2c(C)cccc2-c2cccc(N3C[C@@H]4C[C@]4(C(=O)O)[C@H]3COC)n2)cc2c1CN(C1CCOCC1)CC2 [Compound 53] | 9 nM | <24% | 130 µg/mL (≈ 212 µM) | 110 µg/mL (≈ 180 µM) | 80 µg/mL (≈ 131 µM)
